{"source": "patent US7417053B2", "about": "“Pyrazolo[1,5-a]pyridine derivatives or pharmaceutically acceptable salts thereof” (Teijin Pharma Limited, priority 2005, dated 2008)", "note": "Where a name gives a salt, the structure may show the parent alone.", "data": [{"molecular_target": "recombinant human MAPKAP-K2 (Homo sapiens, UniProt P49137)", "sequence (P49137 whole entry)": "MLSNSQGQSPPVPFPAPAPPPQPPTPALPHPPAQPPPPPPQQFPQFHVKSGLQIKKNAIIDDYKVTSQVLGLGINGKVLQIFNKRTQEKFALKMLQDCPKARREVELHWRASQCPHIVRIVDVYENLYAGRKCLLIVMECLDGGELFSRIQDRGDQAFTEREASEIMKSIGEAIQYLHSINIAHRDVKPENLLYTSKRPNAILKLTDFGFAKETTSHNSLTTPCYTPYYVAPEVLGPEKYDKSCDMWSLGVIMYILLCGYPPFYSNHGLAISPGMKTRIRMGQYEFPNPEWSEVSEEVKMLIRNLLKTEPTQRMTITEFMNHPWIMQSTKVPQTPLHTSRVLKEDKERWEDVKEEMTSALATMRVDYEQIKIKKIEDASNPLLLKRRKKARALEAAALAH", "experiment": "Inhibitory activity against MAPKAP-K2 enzyme (33P-ATP peptide phosphorylation)", "assay_type": "biochemical", "details": "recombinant human MAPKAP-K2, ATP 20 μmol/L solution, room temperature 30 min; read-out: Activity Strength (MAPKAP-K2 IC50 value)", "method": "General Measurement Method for Determining the Inhibitory Activity Against MAPKAP-K2 enzyme\n(Preparation of Solutions of Compounds)\nEach compound was dissolved in DMSO to prepare a solution with a concentration of 20 mmol/L and this solution was stored at −20° C. This stock solution was diluted with DMSO successively to prepare solutions with 200-fold concentrations of a necessary range. These solutions were further diluted with water at a ratio of 1:20 to prepare solutions with 10-fold concentrations of a necessary range. Each of these solutions (5 μL) was used for each reaction in 50 μL-scale. Through the dilution series of all compounds, the final DMSO concentration was kept at 0.5%. Conventional tests for the compounds were carried out at a final concentration range from 100 μmol/L to 0.03 μmol/L. but in some cases, tests were carried out at lower concentrations, depending on activity.\n(Measurements of MAPKAP-K2 Enzyme Activities)\nTo a 5% DMSO aqueous solution (5 μL) of a test compound, a solution (25 μL) containing a peptide substrate [peptide substrate 60 μmol/L, ATP 20 μmol/L, Tris buffer 60 mmol/L (pH 7.5), EGTA 0.2 mmol/L, β-mercaptoethanol 0.2%, magnesium acetate 20 mmol/L, [γ-33P]ATP 0.1 μCi (specific radioactivity ca. 110 TBq/mmol)] was added. The reaction was initiated by adding a solution (20 μL) containing MAPKAP-K2 enzyme [recombinant human MAPKAP-K2 10 mU, Tris buffer […] (pH 7.5), EGTA 0.1 mmol/L, β-mercaptoethanol 0.1%, BSA 0.1%]. After the reaction was carried out at room temperature for 30 min, 200 mmol/L phosphoric acid (50 μL) was added to quench the reaction, and 90 μL of the reaction mixture was adsorbed on a multiscreen PH plate (Millipore). The plate was washed with 100 mmol/L phosphoric acid. After the plate was dried, 30 μL of MicroScint-O (Perkin-Elmer) was added, and the count per minute was measured on a scintillation counter to determine the inhibitory activity. The peptide substrate was Lys-Lys-Leu-Asn-Arg-Thr-Leu-Ser-Val-Ala.\n• % Reference=(X−B)/(Tot−B)×100 • % Inhibition=100−% Reference • X represents count per minute of the well with a test compound applied. • B represents count per minute of the well without the enzyme. • Tot represents count per minute of the well with only DMSO solvent and no test compound applied. (Calculation of MAPKAP-K2 Inhibitory Activity) • IC50 value represents a concentration of compound at which 50% inhibition is observed.", "units": {"IC50": "nM"}, "values": [{"compound": "CCOc1ccc(Nc2c(-c3ccccc3)c(NC3CCCNC3)c(C#N)c3ccnn23)cc1", "note": "(stereo not shown) [Compound 95, 5-(3-Piperidylamino)-7-(4-ethoxyphenylamino)-6-phenylpyrazolo[1,5-a]pyridine-4-carbonitrile trifluoroacetate salt]", "IC50": "200 to 1000"}, {"compound": "Cc1c(N[C@H]2CCCNC2)c(C#N)c2ccnn2c1Nc1ccccc1", "note": "[Compound 111, 5-[((3S)-(3-Piperidyl))amino]-6-methyl-7-(phenylamino)pyrazolo[1,5-a]pyridine-4-carbonitrile trifluoroacetate salt]", "IC50": "< 200"}, {"compound": "C=CCc1c(N[C@H]2CCCNC2)c(C#N)c2ccnn2c1Nc1ccc(OCC)cc1", "note": "[Compound 86, 5-[(3S)-3-Piperidylamino]-7-(4-ethoxyphenylamino)-6-(2-propenyl)pyrazolo[1,5-a]pyridine-4-carbonitrile trifluoroacetate salt]", "IC50": "< 200"}, {"compound": "CCOc1ccc(Nc2c(C)c(N[C@H]3CC[C@H](N)CC3)c(C#N)c3ccnn23)cc1", "note": "[Compound 102, 5-[(trans-4-Aminocyclohexyl)amino]-7-(4-ethoxyphenylamino)-6-methylpyrazolo[1,5-a]pyridine-4-carbonitrile trifluoroacetate salt]", "IC50": "< 200"}, {"compound": "CCOc1ccc(Nc2c(C)c(N[C@H]3CCCNC3)c(C#N)c3ccnn23)cc1", "note": "[Compound 85, 5-[(3S)-3-piperidylamino]-7-(4-ethoxyphenylamino)-6-methylpyrazolo[1,5-a]pyridine-4-carbonitrile]", "IC50": "< 200"}, {"compound": "N#Cc1c(N[C@H]2CCCNC2)cc(Nc2ccccc2Cl)n2nccc12", "note": "[Compound 93, 5-[(3S)-3-Piperidylamino]-7-(2-chlorophenylamino)pyrazolo[1,5-a]pyridine-4-carbonitrile trifluoroacetate salt]", "IC50": "200 to 1000"}, {"compound": "CCOc1ccc(Nc2c(C)c(NCCC3CCCCN3)c(C#N)c3ccnn23)cc1", "note": "(stereo not shown) [Compound 113, 7-[(4-Ethoxyphenyl)amino]-6-methyl-5-[(2-(2-piperidyl)ethyl)amino]pyrazolo[1,5-a]pyridine-4-carbonitrile trifluoroacetate salt]", "IC50": "10000 to 100000"}, {"compound": "CCOc1ccc(Nc2c(C)c(N[C@H]3CC[C@H](NCCCc4ccccc4)CC3)c(C#N)c3ccnn23)cc1", "note": "[Compound 116, 7-[(4-Ethoxyphenyl)amino]-6-methyl-5-({trans-4-[(3-phenylpropyl)amino]cyclohexyl}amino)pyrazolo[1,5-a]pyridine-4-carbonitrile trifluoroacetate salt]", "IC50": "200 to 1000"}, {"compound": "Cc1c(N[C@H]2CCCNC2)c(C#N)c2ccnn2c1Nc1ccc2ncsc2c1", "note": "[Compound 117, 5-[((3S)-3-Piperidyl)amino]-7-(benzothiazol-6-ylamino)-6-methylpyrazolo[1,5-a]pyridine-4-carbonitrile trifluoroacetate salt]", "IC50": "< 200"}, {"compound": "CCOc1ccc(Nc2c(C(C)C)c(N[C@H]3CC[C@H](N)CC3)c(C#N)c3ccnn23)cc1", "note": "[Compound 124, 5-(trans-4-Aminocyclohexylamino)-7-(4-ethoxyphenylamino)-6-(methylethyl)pyrazolo[1,5-a]pyridine-4-carbonitrile]", "IC50": "< 200"}, {"compound": "CCOc1ccc(Nc2c(C)c(N[C@H]3CC[C@H](NCc4ccccc4)CC3)c(C#N)c3ccnn23)cc1", "note": "[Compound 115, 7-[(4-Ethoxyphenyl)amino]-6-methyl-5-[trans-{4-(benzylamino)cyclohexyl]amino}pyrazolo[1,5-a]pyridine-4-carbonitrile trifluoroacetate salt]", "IC50": "200 to 1000"}, {"compound": "COCCOc1ccc(Nc2c(C)c(N[C@H]3CCNC3)c(C#N)c3ccnn23)cc1", "note": "[Compound 88, 5-[(3S)-3-Pyrrolidylamino]-7-[4-(2-methoxyethoxy)phenylamino]-6-methylpyrazolo[1,5-a]pyridine-4-carbonitrile trifluoroacetate salt]", "IC50": "200 to 1000"}, {"compound": "CCOc1ccc(Nc2c(C)c(NC3CCCC(N)C3)c(C#N)c3ccnn23)cc1", "note": "(stereo not shown) [Compound 104, 5-[(3-Aminocyclohexyl)amino]-7-[(4-ethoxyphenyl)amino]-6-methylpyrazolo[1,5-a]pyridine-4-carbonitrile trifluoroacetate salt]", "IC50": "1000 to 10000"}, {"compound": "CCOc1ccc(Nc2c(C)c(NC3CNCc4ccccc43)c(C#N)c3ccnn23)cc1", "note": "(stereo not shown) [Compound 127, 7-[(4-Ethoxyphenyl)amino]-6-methyl-5-[4-(1,2,3,4-tetrahydroisoquinolyl)amino]pyrazolo[1,5-a]pyridine-4-carbonitrile trifluoroacetate salt]", "IC50": "1000 to 10000"}, {"compound": "CCOc1ccc(Nc2c(C(C)C)c(N[C@H]3CCCNC3)c(C#N)c3ccnn23)cc1", "note": "[Compound 123, 5-[(3S)-3-Piperidylamino]-7-(4-ethoxyphenylamino)-6-(methylethyl)pyrazolo[1,5-a]pyridine-4-carbonitrile]", "IC50": "< 200"}, {"compound": "CCOc1ccc(Nc2c(C)c(NCCCCCCN)c(C#N)c3ccnn23)cc1", "note": "[Compound 132, 5-[(6-Amionohexyl)amino]-7-[(4-ethoxyphenyl)amino]-6-methylpyrazolo[1,5-a]pyridine-4-carbonitrile trifluoroacetate salt]", "IC50": "10000 to 100000"}, {"compound": "CCOc1ccc(Nc2c(C)c(NCC3CCCNC3)c(C#N)c3ccnn23)cc1", "note": "(stereo not shown) [Compound 128, 7-[(4-Ethoxyphenyl)amino]-6-methyl-5-[(3-piperidylmethyl)amino]pyrazolo[1,5-a]pyridine-4-carbonitrile trifluoroacetate salt]", "IC50": "1000 to 10000"}, {"compound": "CCOc1ccc(Nc2c(C)c(N[C@H]3CC[C@H](NCCc4ccccc4)CC3)c(C#N)c3ccnn23)cc1", "note": "[Compound 125, 7-[(4-Ethoxyphenyl)amino]-6-methyl-5-(trans-{4-[(2-phenylethyl)amino]cyclohexyl}amino]pyrazolo[1,5-a]pyridine-4-carbonitrile trifluoroacetate salt]", "IC50": "200 to 1000"}, {"compound": "COc1ccccc1Nc1cc(N[C@H]2CC[C@H](N)CC2)c(C#N)c2ccnn12", "note": "[Compound 98, 5-(trans-4-Aminocyclohexylamino)-7-(2-methoxyphenylamino)pyrazolo[1,5-a]pyridine-4-carbonitrile trifluoroacetate salt]", "IC50": "200 to 1000"}, {"compound": "CCOc1ccc(Nc2c(CCO)c(N[C@H]3CCCNC3)c(C#N)c3ccnn23)cc1", "note": "[Compound 90, 5-[(3S)-3-Piperidylamino]-7-(4-ethoxyphenylamino)-6-(2-hydroxyethyl)pyrazolo[1,5-a]pyridine-4-carbonitrile]", "IC50": "< 200"}, {"compound": "CCOc1ccc(Nc2c(C)c(NCCCCN)c(C#N)c3ccnn23)cc1", "note": "[Compound 108, 5-[(4-Aminobutyl)amino]-7-[(4-ethoxyphenyl)amino]-6-methylpyrazolo[1,5-a]pyridine-4-carbonitrile trifluoroacetate salt]", "IC50": "200 to 1000"}, {"compound": "CCOc1ccc(Nc2c(C)c(N[C@H]3CCCC[C@@H]3N)c(C#N)c3ccnn23)cc1", "note": "(relative stereo) [Compound 101, 5-[(trans-2-Aminocyclohexyl)amino]-7-(4-ethoxyphenylamino)-6-methylpyrazolo[1,5-a]pyridine-4-carbonitrile trifluoroacetate salt]", "IC50": "10000 to 100000"}]}]}
